EP0726263A2, “Herbicidal (1,3,4)oxadiazoles and thiadiazoles” (American Cyanamid Company, priority 1995, dated 1996)

Legend:
Format in all cases: in vivo
Abutilon theophrasti [1] = experiment: Herbicidal activity, preemergence test; conditions: pre; sprayed onto soil, 800 g of active material per hectare; evaluated 3 weeks after treatment
How it was run: (§1)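 Spray dose 800 g a.i./ha in 900 L/ha; acetone stock with 0.4% Triton X-155, water-diluted. Pre: sown loam soil, read at 3 wk. Post: seedling plants, read at 2 wk. Visual 0-9 rating vs untreated.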

Matricaria inodora [2] = experiment: Herbicidal activity, preemergence test; conditions: pre; sprayed onto soil, 800 g of active material per hectare; evaluated 3 weeks after treatment
How it was run: as §1

Gossypium hirsutum [3] = experiment: Herbicidal activity, preemergence test; conditions: pre; sprayed onto soil, 800 g of active material per hectare; evaluated 3 weeks after treatment
How it was run: as §1

Chenopodium album [4] = experiment: Herbicidal activity, preemergence test; conditions: pre; sprayed onto soil, 800 g of active material per hectare; evaluated 3 weeks after treatment
How it was run: as §1

Hordeum vulgare [5] = experiment: Herbicidal activity, preemergence test; conditions: pre; sprayed onto soil, 800 g of active material per hectare; evaluated 3 weeks after treatment
How it was run: as §1

Amaranthus retroflexus [6] = experiment: Herbicidal activity, preemergence test; conditions: pre; sprayed onto soil, 800 g of active material per hectare; evaluated 3 weeks after treatment
How it was run: as §1

Triticum aestivum [7] = experiment: Herbicidal activity, preemergence test; conditions: pre; sprayed onto soil, 800 g of active material per hectare; evaluated 3 weeks after treatment
How it was run: as §1

Zea mays [8] = experiment: Herbicidal activity, preemergence test; conditions: pre; sprayed onto soil, 800 g of active material per hectare; evaluated 3 weeks after treatment
How it was run: as §1

Ambrosia artemisifolia [9] = experiment: Herbicidal activity, preemergence test; conditions: pre; sprayed onto soil, 800 g of active material per hectare; evaluated 3 weeks after treatment
How it was run: as §1

Setaria viridis [10] = experiment: Herbicidal activity, preemergence test; conditions: pre; sprayed onto soil, 800 g of active material per hectare; evaluated 3 weeks after treatment
How it was run: as §1

Glycine max [11] = experiment: Herbicidal activity, preemergence test; conditions: pre; sprayed onto soil, 800 g of active material per hectare; evaluated 3 weeks after treatment
How it was run: as §1

Veronica persica [12] = experiment: Herbicidal activity, preemergence test; conditions: pre; sprayed onto soil, 800 g of active material per hectare; evaluated 3 weeks after treatment
How it was run: as §1

Papaver rhoeas [13] = experiment: Herbicidal activity, preemergence test; conditions: pre; sprayed onto soil, 800 g of active material per hectare; evaluated 3 weeks after treatment
How it was run: as §1

Ipomoea hederacea [14] = experiment: Herbicidal activity, preemergence test; conditions: pre; sprayed onto soil, 800 g of active material per hectare; evaluated 3 weeks after treatment
How it was run: as §1

Stellaria media [15] = experiment: Herbicidal activity, preemergence test; conditions: pre; sprayed onto soil, 800 g of active material per hectare; evaluated 3 weeks after treatment
How it was run: as §1

Alopecurus myosuroides [16] = experiment: Herbicidal activity, preemergence test; conditions: pre; sprayed onto soil, 800 g of active material per hectare; evaluated 3 weeks after treatment
How it was run: as §1

Galium aparine [17] = experiment: Herbicidal activity, preemergence test; conditions: pre; sprayed onto soil, 800 g of active material per hectare; evaluated 3 weeks after treatment
How it was run: as §1

Lamium purpureum [18] = experiment: Herbicidal activity, preemergence test; conditions: pre; sprayed onto soil, 800 g of active material per hectare; evaluated 3 weeks after treatment
How it was run: as §1

Abutilon theophrasti [19] = experiment: Herbicidal activity, postemergence test; conditions: post; sprayed onto seedling plants, 800 g of active material per hectare; evaluated 2 weeks after treatment
How it was run: as §1

Matricaria inodora [20] = experiment: Herbicidal activity, postemergence test; conditions: post; sprayed onto seedling plants, 800 g of active material per hectare; evaluated 2 weeks after treatment
How it was run: as §1

Gossypium hirsutum [21] = experiment: Herbicidal activity, postemergence test; conditions: post; sprayed onto seedling plants, 800 g of active material per hectare; evaluated 2 weeks after treatment
How it was run: as §1

Chenopodium album [22] = experiment: Herbicidal activity, postemergence test; conditions: post; sprayed onto seedling plants, 800 g of active material per hectare; evaluated 2 weeks after treatment
How it was run: as §1

Hordeum vulgare [23] = experiment: Herbicidal activity, postemergence test; conditions: post; sprayed onto seedling plants, 800 g of active material per hectare; evaluated 2 weeks after treatment
How it was run: as §1

Amaranthus retroflexus [24] = experiment: Herbicidal activity, postemergence test; conditions: post; sprayed onto seedling plants, 800 g of active material per hectare; evaluated 2 weeks after treatment
How it was run: as §1

Triticum aestivum [25] = experiment: Herbicidal activity, postemergence test; conditions: post; sprayed onto seedling plants, 800 g of active material per hectare; evaluated 2 weeks after treatment
How it was run: as §1

Zea mays [26] = experiment: Herbicidal activity, postemergence test; conditions: post; sprayed onto seedling plants, 800 g of active material per hectare; evaluated 2 weeks after treatment
How it was run: as §1

Ambrosia artemisifolia [27] = experiment: Herbicidal activity, postemergence test; conditions: post; sprayed onto seedling plants, 800 g of active material per hectare; evaluated 2 weeks after treatment
How it was run: as §1

Setaria viridis [28] = experiment: Herbicidal activity, postemergence test; conditions: post; sprayed onto seedling plants, 800 g of active material per hectare; evaluated 2 weeks after treatment
How it was run: as §1

Glycine max [29] = experiment: Herbicidal activity, postemergence test; conditions: post; sprayed onto seedling plants, 800 g of active material per hectare; evaluated 2 weeks after treatment
How it was run: as §1

Veronica persica [30] = experiment: Herbicidal activity, postemergence test; conditions: post; sprayed onto seedling plants, 800 g of active material per hectare; evaluated 2 weeks after treatment
How it was run: as §1

Papaver rhoeas [31] = experiment: Herbicidal activity, postemergence test; conditions: post; sprayed onto seedling plants, 800 g of active material per hectare; evaluated 2 weeks after treatment
How it was run: as §1

Ipomoea hederacea [32] = experiment: Herbicidal activity, postemergence test; conditions: post; sprayed onto seedling plants, 800 g of active material per hectare; evaluated 2 weeks after treatment
How it was run: as §1

Stellaria media [33] = experiment: Herbicidal activity, postemergence test; conditions: post; sprayed onto seedling plants, 800 g of active material per hectare; evaluated 2 weeks after treatment
How it was run: as §1

Alopecurus myosuroides [34] = experiment: Herbicidal activity, postemergence test; conditions: post; sprayed onto seedling plants, 800 g of active material per hectare; evaluated 2 weeks after treatment
How it was run: as §1

Galium aparine [35] = experiment: Herbicidal activity, postemergence test; conditions: post; sprayed onto seedling plants, 800 g of active material per hectare; evaluated 2 weeks after treatment
How it was run: as §1

Lamium purpureum [36] = experiment: Herbicidal activity, postemergence test; conditions: post; sprayed onto seedling plants, 800 g of active material per hectare; evaluated 2 weeks after treatment
How it was run: as §1

What does the source list for `C[C@H](NC(=O)c1nnc(-c2c(F)cccc2F)o1)c1ccccc1` [Example 24]?
ABUTH control rating (0-9) (Abutilon theophrasti [1]): 7 (good herbicidal effect); MATIN control rating (0-9) (Matricaria inodora [2]): 9 (complete kill); GOSHI control rating (0-9) (Gossypium hirsutum [3]): 0 (no effect); CHEAL control rating (0-9) (Chenopodium album [4]): 8 (approaching complete kill); HORVW control rating (0-9) (Hordeum vulgare [5]): 0 (no effect); AMARE control rating (0-9) (Amaranthus retroflexus [6]): 9 (complete kill); TRZAW control rating (0-9) (Triticum aestivum [7]): 0 (no effect); ZEAMX control rating (0-9) (Zea mays [8]): 0 (no effect); AMBEL control rating (0-9) (Ambrosia artemisifolia [9]): 3 (moderate effect); SETVI control rating (0-9) (Setaria viridis [10]): 8 (approaching complete kill); GLXMA control rating (0-9) (Glycine max [11]): 0 (no effect); VERPE control rating (0-9) (Veronica persica [12]): 9 (complete kill); PAPRH control rating (0-9) (Papaver rhoeas [13]): 9 (complete kill); IPOHE control rating (0-9) (Ipomoea hederacea [14]): 2 (slight effect); STEME control rating (0-9) (Stellaria media [15]): 8 (approaching complete kill); ALOMY control rating (0-9) (Alopecurus myosuroides [16]): 2 (slight effect); GALAP control rating (0-9) (Galium aparine [17]): 0 (no effect); LAMPU control rating (0-9) (Lamium purpureum [18]): 7 (good herbicidal effect); ABUTH control rating (0-9) (Abutilon theophrasti [19]): 9 (complete kill); MATIN control rating (0-9) (Matricaria inodora [20]): 4 (injury); GOSHI control rating (0-9) (Gossypium hirsutum [21]): 8 (approaching complete kill); CHEAL control rating (0-9) (Chenopodium album [22]): 9 (complete kill); HORVW control rating (0-9) (Hordeum vulgare [23]): 2 (slight effect); AMARE control rating (0-9) (Amaranthus retroflexus [24]): 9 (complete kill); TRZAW control rating (0-9) (Triticum aestivum [25]): 3 (moderate effect); ZEAMX control rating (0-9) (Zea mays [26]): 2 (slight effect); AMBEL control rating (0-9) (Ambrosia artemisifolia [27]): 8 (approaching complete kill); SETVI control rating (0-9) (Setaria viridis [28]): 6 (herbicidal effect); GLXMA control rating (0-9) (Glycine max [29]): 4 (injury); VERPE control rating (0-9) (Veronica persica [30]): 9 (complete kill); PAPRH control rating (0-9) (Papaver rhoeas [31]): 6 (herbicidal effect); IPOHE control rating (0-9) (Ipomoea hederacea [32]): 5 (definite injury); STEME control rating (0-9) (Stellaria media [33]): 8 (approaching complete kill); ALOMY control rating (0-9) (Alopecurus myosuroides [34]): 2 (slight effect); GALAP control rating (0-9) (Galium aparine [35]): 5 (definite injury); LAMPU control rating (0-9) (Lamium purpureum [36]): 8 (approaching complete kill)

What does the source list for `C[C@H](NC(=O)c1nnc(-c2c(Cl)cccc2Cl)o1)c1ccccc1` [Example 25]?
ABUTH control rating (0-9) (Abutilon theophrasti [1]): 0 (no effect); MATIN control rating (0-9) (Matricaria inodora [2]): 0 (no effect); GOSHI control rating (0-9) (Gossypium hirsutum [3]): 0 (no effect); CHEAL control rating (0-9) (Chenopodium album [4]): 0 (no effect); HORVW control rating (0-9) (Hordeum vulgare [5]): 0 (no effect); AMARE control rating (0-9) (Amaranthus retroflexus [6]): 3 (moderate effect); TRZAW control rating (0-9) (Triticum aestivum [7]): 0 (no effect); ZEAMX control rating (0-9) (Zea mays [8]): 0 (no effect); AMBEL control rating (0-9) (Ambrosia artemisifolia [9]): 0 (no effect); SETVI control rating (0-9) (Setaria viridis [10]): 0 (no effect); GLXMA control rating (0-9) (Glycine max [11]): 0 (no effect); VERPE control rating (0-9) (Veronica persica [12]): 0 (no effect); PAPRH control rating (0-9) (Papaver rhoeas [13]): 3 (moderate effect); IPOHE control rating (0-9) (Ipomoea hederacea [14]): 0 (no effect); STEME control rating (0-9) (Stellaria media [15]): 0 (no effect); ALOMY control rating (0-9) (Alopecurus myosuroides [16]): 0 (no effect); GALAP control rating (0-9) (Galium aparine [17]): 0 (no effect); LAMPU control rating (0-9) (Lamium purpureum [18]): 0 (no effect); ABUTH control rating (0-9) (Abutilon theophrasti [19]): 1 (trace effect); MATIN control rating (0-9) (Matricaria inodora [20]): 0 (no effect); GOSHI control rating (0-9) (Gossypium hirsutum [21]): 0 (no effect); CHEAL control rating (0-9) (Chenopodium album [22]): 5 (definite injury); HORVW control rating (0-9) (Hordeum vulgare [23]): 0 (no effect); AMARE control rating (0-9) (Amaranthus retroflexus [24]): 5 (definite injury); TRZAW control rating (0-9) (Triticum aestivum [25]): 0 (no effect); ZEAMX control rating (0-9) (Zea mays [26]): 0 (no effect); AMBEL control rating (0-9) (Ambrosia artemisifolia [27]): 0 (no effect); SETVI control rating (0-9) (Setaria viridis [28]): 0 (no effect); GLXMA control rating (0-9) (Glycine max [29]): 1 (trace effect); VERPE control rating (0-9) (Veronica persica [30]): 0 (no effect); PAPRH control rating (0-9) (Papaver rhoeas [31]): 2 (slight effect); IPOHE control rating (0-9) (Ipomoea hederacea [32]): 1 (trace effect); STEME control rating (0-9) (Stellaria media [33]): 0 (no effect); ALOMY control rating (0-9) (Alopecurus myosuroides [34]): 0 (no effect); GALAP control rating (0-9) (Galium aparine [35]): 0 (no effect); LAMPU control rating (0-9) (Lamium purpureum [36]): 1 (trace effect)
